Measured values taken from ChEMBL document CHEMBL4610091, “Antimalarial 9-Methoxystrobilurins, Oudemansins, and Related Polyketides from Cultures of Basidiomycete Favolaschia Species” (J Nat Prod, 2020).
pIC50: −log10 of the molar value.

Experiments:
[1] = test system: Vero; experiment: Cytotoxicity against African green monkey Vero cells by green fluorescent protein-based assay; type: cell-based; settings: Chlorocebus sabaeus
[2] = test system: Plasmodium falciparum; experiment: Antiplasmodial activity against Plasmodium falciparum K1 assessed as reduction in [3H]-hypoxanthine after 42 hrs by microculture radioisotope technique; type: functional, organism-based
[3] = test system: NCI-H187; experiment: Cytotoxicity against human NCI-H187 cells by resazurin microplate assay; type: functional, cell-based
[4] = test system: MCF7; experiment: Cytotoxicity against human MCF7 cells by resazurin microplate assay; type: functional, cell-based
[5] = Selectivity index, ratio of IC50 for African green monkey Vero cells to IC50 for Plasmodium falciparum K1; type: toxicity; settings: read-out: Ratio IC50

SMILES: CO\C=C(C(=O)OC)/C(C)=C\C=C\c1ccc2c(c1)OC(C)(C)[C@@H](OCC=C(C)C)CO2
- pIC50 [1]: < 3.95
- pIC50 [2]: 6.08
- pIC50 [3]: 5.31
- pIC50 [4]: 4.61
- selectivity ratio [5]: > 135

SMILES: CO/C=C(/C(=O)OC)[C@H](C)[C@H](/C=C/c1ccc2c(c1)OC(C)(C)[C@@H](O)CO2)OC
- pIC50 [1]: < 3.91
- pIC50 [2]: 4.65
- pIC50 [3]: 4.24
- pIC50 [4]: < 3.91
- selectivity ratio [5]: > 5.2

SMILES: C[C@]1([C@@H]2Cc3cc(C(N)=O)cc(Cl)c3O2)CCC(=O)O1
- pIC50 [1]: < 3.77
- pIC50 [2]: < 4.47
- pIC50 [3]: < 3.77
- pIC50 [4]: < 3.77

SMILES: COC(=O)/C(COC(=O)Cc1ccccc1)=C(/C)[C@H](/C=C/c1ccc(Cl)c(OC)c1)OC
- pIC50 [1]: 4.26
- pIC50 [2]: < 4.66
- pIC50 [3]: 4.42
- pIC50 [4]: < 3.96

SMILES: C=CC(C)(C)O[C@H]1COc2ccc(/C=C/[C@H](OC)[C@@H](C)/C(=C\OC)C(=O)OC)cc2OC1(C)C
- pIC50 [1]: 4.61
- pIC50 [2]: 6.62
- pIC50 [3]: 6.02
- pIC50 [4]: < 3.98
- selectivity ratio [5]: 102

SMILES: C/C(=C\c1ccccc1)[C@@H](O)C(C)(C)C(=O)O
- pIC50 [1]: < 3.67
- pIC50 [2]: < 4.37
- pIC50 [3]: < 3.67
- pIC50 [4]: < 3.67

SMILES: CO/C=C(/C(=O)OC)C(C)C(=O)/C=C/c1ccc2c(c1)O[C@@]1(CO2)O[C@H](C=C(C)C)OC1(C)C (mixture of isomers)
- pIC50 [1]: 4.74
- pIC50 [2]: 4.97
- pIC50 [3]: 5.24
- pIC50 [4]: 4.63
- selectivity ratio [5]: 1.7

SMILES: CO/C=C(/C(=O)OC)[C@H](C)[C@H](/C=C/c1cccc(OC)c1)OC
- pIC50 [1]: 3.95
- pIC50 [2]: 4.99
- pIC50 [3]: 4.01
- pIC50 [4]: < 3.81
- selectivity ratio [5]: 10.9

SMILES: CO/C=C(/C(=O)OC)[C@H](C)[C@@H](O)/C=C/c1ccccc1
- pIC50 [1]: < 3.74
- pIC50 [2]: < 4.44
- pIC50 [3]: 3.80

SMILES: CO\C=C(C(=O)OC)/C(C)=C(\C=C\c1ccc2c(c1)O[C@@]1(CO2)O[C@H](C=C(C)C)OC1(C)C)OC
- pIC50 [1]: < 3.99
- pIC50 [2]: 6.85
- pIC50 [3]: 5.48
- pIC50 [4]: < 3.99
- selectivity ratio [5]: > 736

SMILES: C[C@H]1[C@@H](O)O[C@@H]2O[C@@]3(C)CC[C@H]4[C@H](C)CC[C@@H]1[C@@]24OO3 [ARTENIMOL]
- pIC50 [2]: 8.51

SMILES: CO/C=C(/C(=O)OC)C(C)C(=O)/C=C/c1ccc2c(c1)OC(C)(C)[C@@H](OCC=C(C)C)CO2 (some centres undefined)
- pIC50 [1]: 4.17
- pIC50 [2]: 5.38
- pIC50 [3]: 5.03
- pIC50 [4]: < 3.96
- selectivity ratio [5]: 16.3

SMILES: C=CC(C)(C)O[C@H]1COc2cc(C(=O)OC)c(C)c(OC)c2OC1(C)C
- pIC50 [1]: 4.36
- pIC50 [2]: 5.08
- pIC50 [3]: 4.26
- pIC50 [4]: < 3.95

SMILES: Cc1c2ccncc2c(C)c2c1[nH]c1ccccc12 [ELLIPTECINE]
- pIC50 [1]: 5.13
- pIC50 [3]: 5.03

SMILES: C/C(=C/[C@H](O)[C@H](O)c1ccccc1)CCO
- pIC50 [1]: < 3.65
- pIC50 [2]: < 4.35
- pIC50 [3]: < 3.65
- pIC50 [4]: < 3.65

SMILES: COC(=O)/C(CO)=C(/C)[C@H](/C=C/c1ccccc1)OC
- pIC50 [1]: < 3.74
- pIC50 [2]: < 4.44
- pIC50 [3]: < 3.74
- pIC50 [4]: < 3.74

SMILES: O[C@@H](c1cc(C(F)(F)F)nc2c(C(F)(F)F)cccc12)[C@H]1CCCCN1
- pIC50 [2]: 7.28

SMILES: COC(=O)/C(CO)=C(/C)[C@H](/C=C/c1ccc(Cl)c(OC)c1)OC
- pIC50 [1]: 3.91
- pIC50 [2]: < 4.54
- pIC50 [3]: 3.85
- pIC50 [4]: < 3.83

SMILES: COC(=O)c1cc(-c2ccc3c(c2)O[C@@]2(CO3)O[C@H](C=C(C)C)OC2(C)C)cc(OC)c1C
- pIC50 [1]: 4.87
- pIC50 [2]: < 4.66
- pIC50 [3]: 4.27

SMILES: CO/C=C(/C(=O)OC)C(C)C(=O)/C=C/c1ccccc1 (centres undefined)
- pIC50 [1]: < 3.74
- pIC50 [2]: < 4.44
- pIC50 [3]: 4.22
- pIC50 [4]: < 3.74

SMILES: CO/C=C(/C(=O)OC)[C@H](C)[C@H](/C=C/c1ccc2c(c1)OC(C)(C)[C@@H](OCC=C(C)C)CO2)OC
- pIC50 [1]: 4.55
- pIC50 [2]: 6.32
- pIC50 [3]: 5.66
- pIC50 [4]: < 3.98
- selectivity ratio [5]: 58.8

SMILES: COC(=O)c1cc(-c2ccccc2)cc(OC)c1C
- pIC50 [1]: 4.13
- pIC50 [2]: < 4.41
- pIC50 [3]: 3.73
- pIC50 [4]: < 3.71

SMILES: C/C(=C\c1ccccc1)[C@@H](O)C(C)(C)O
- pIC50 [1]: < 3.62
- pIC50 [2]: < 4.32
- pIC50 [3]: < 3.62
- pIC50 [4]: < 3.62

SMILES: CC(=O)OCC/C(C)=C\[C@H](O)[C@H](O)c1ccccc1
- pIC50 [1]: < 3.72
- pIC50 [2]: < 4.42
- pIC50 [3]: < 3.72
- pIC50 [4]: < 3.72

SMILES: C=CC(C)(C)O[C@H]1COc2ccc(/C=C/C(OC)=C(C)\C(=C/OC)C(=O)OC)cc2OC1(C)C
- pIC50 [1]: 4.01
- pIC50 [2]: 7.05
- pIC50 [3]: 6.82
- pIC50 [4]: 4.36
- selectivity ratio [5]: 1100
